# Literature values in publication PMC11643554, “Synthesis, Cytotoxicity and Antiproliferative Effect of New Pyrrole Hydrazones” (Molecules, 2024).
# System: melanoma cells
# Design: method as in PMID 25524552, PMID 29364157
# Settings: standard cytostatics used in chemotherapy, compared with 1C in SH-4 melanoma cells; cited from earlier work
row,SMILES,IC50
1,N.N.O=C([O-])C1(C(=O)[O-])CCC1.[Pt+2] [Carboplatin],18.2 µM
2,CN(C)C(=O)c1cc2cnc(Nc3ccc(N4CCNCC4)cn3)nc2n1C1CCCC1 [Ribociclib],35 µM
3,Cn1nnc2c(C(N)=O)ncn2c1=O [Temozolomide],50 µM
